# Assays:
# conscious male rat = experiment: Penile intracavernosal pressure in the conscious male rat (telemetry); assay type: in vivo
# Experimental: In addition to treating women with FSD, bombesin antagonists will be useful in treating male erectile dysfunction (MED. Both the non-selective BB1/2 antagonists (Compound 1; 10 mg/kg sc) and the selective BB I receptor antagonist (Compound 3; 15 mg/kg sc) is pro-erectile in a conscious rat model of penile erection (FIGS. 24 and 25). Erectile responses were recorded by measuring intracavemosal pressure using surgically implanted telemetric device. The specific details the surgical procedures, data acquisition and analysis can be found in detail in Bernabe 1999.
# Compound 1 and compound 3 were dissolved in 50% O-cyclodextrin in saline. They were administered at a dose of 15 mg/kg subcutaneously (sc). […] These increases equate to penile erection. Both Compounds 1 and 3 induced a number of erections in a similar manner to those observed with apomorphine or melanotan-II—both of which are clinically proven agents that are effective in the treatment of MED. Moreover the amplitude of the increases observed were similar to those observed with apomorphine or melanotan-II. The mechanism of action is thought to be similar to the effects on female genital flow ie CNS potentiation of the descending neuronal pathways that control penile erection.
# [1] = system: ovariectomised female Sprague Dawley rats; experiment: Female rat sexual receptivity (lordosis quotient); assay type: in vivo; conditions: Example 2; quinelorane 6.25 μg/kg s.c., 90 min; Compound (1) 10 mg/kg i.p., 1 h
# Experimental: Ovariectomised adult female Sprague Dawley rats (180-200 g, from Charles River) were housed in groups of 6 in a reversed lighting system of 12 h light:dark (lights off 7.00-19.00 h). Two weeks after ovariectomy they were used for sexual activity tests. The experiments started at least 5 h into the dark period.
# Compound (1) was dissolved in 100% β-cyclodextrin and then diluted with saline to a final solution of 50% 2-hydroxypropyl-β-cyclodextrin. It was administered intraperitoneally (i.p.) at a dose of 10 mg/kg, in a dosing volume of 1 ml/kg. Quinelorane (6.25 μg/kg) was dissolved in water and administered s.c. as positive control. Forty eight hours before testing, ovariectomised female rats (as described above), were primed with 5 μg oestradiol benzoate dissolved in corn oil and injected subcutaneously. […] The females were placed with a series of vigorous male rats and subjected to 10 mounts.
# The lordotic response of the animal was recorded and expressed as a percentage of the mounts (i.e. lordosis quotient, LQ), as previously described. Animals showing LQ<20 were considered non-receptive and were included in the study. Each rat was tested prior to administration of the compound and then tested similarly post-injection. The pre-treatment times were 1 h for Compound (1) and vehicle (50% β-cyclodextrin, i.p.) or 90 min for quinelorane.
# The above compound was dissolved in PEG200 vehicle and administered orally. Quinelorane dihydrochloride (LY 163,502, 6.25 μg/kg) was dissolved in water and administered subcutaneously (s.c.), as a positive control. Both compounds were administered in a 1 ml/kg volume.
# Forty eight hours before tests, the animals were primed with 5 μg oestradiol benzoate (Sigma Chemical. Co. Ltd., UK) dissolved in corn oil and injected subcutaneously. The females were placed with a series of vigorous male rats and subjected to 10 mounts. The lordotic response of the animal was recorded and expressed as a percentage of the mounts (i.e. lordosis quotient, LQ). […] Animals showing higher LQ were not included in the study. Each rat was tested prior to administration of the compound and then tested similarly at 1 h and 90 min post-injection of the above compound or quinelorane respectively.
compound,measurement,setting,value
"COc1ccc(C2(CNC(=O)[C@](C)(Cc3c[nH]c4ccccc34)NC(=O)Nc3ccc([N+](=O)[O-])cc3)CCCCC2)nc1 [Compound (1), (S) 3-(1H-Indol-3-yl)-N-[1-(5-methoxy-pyridin-2-yl)-cyclohexyl-methyl]-2-methyl-2-[3-(4-nitro-phenyl)-ureido]-propionamide]",penile erection (erectile response),"conscious male rat; Compound 1 10 mg/kg sc, Compound 3 15 mg/kg sc, conscious rat model",pro-erectile
same,intracavernosal pressure,"conscious male rat; one hour after 10 mg/kg sc Compound 1, 45 minutes after 15 mg/kg sc compound 3, conscious rat",significant increases in intracavernosal pressure
same,lordosis quotient (LQ) compared to LQ before administration,[1],significant (P<0.05) stimulatory effect on the LQ
